# Results published in US4648996A, “Phenyl substituted-2,4,6,8-nonatetraenoic acid” (Hoffmann-La Roche Inc., priority 1985, dated 1987).
# Where two headings read alike, the source gives them in different places.
# Experiments:
# [1] = tested on: adjuvant arthritis in rats; experiment: Chronic adjuvant arthritis test (Table I); assay type: in vivo, male Charles River Lewis rats; conditions: for change in vivo at 75 µmol/kg / change in vivo at 96 µmol/kg / change in vivo at 76 µmol/kg / change in vivo at 60 µmol/kg: Rattus norvegicus, 552 h, day 23; for Body Weight Gain: vehicle 28-31
# Method: That the compounds of this invention are effective anti-arthritic agents can be seen from the results obtained when these compounds are administered to rats in accordance with the chronic adjuvant arthritis test system disclosed in Billingham and Davies "Handbook of Experimental Pharmacology" (editors J. R. Vane and S. H. Ferreira) Vol. 50/II, pg. 108-144, Springer-Verlag, Berlin, 1979).
# In this procedure, adjuvant arthritis was induced by the subplantar injection on day 0 of 0.05 ml of adjuvant [a suspension of heat-killed, dessicated Mycobacterium butyricum, 0.5% (w/v), in heavy mineral oil containing 0.2% digitonin] into the right hind paw of male Charles River Lewis rats (120-140 g) that were housed individually and given food and water ad lib. Paw volumes (both hind paws) were measured immediately after injection of the adjuvant. Paw Volumes were also measured, to follow the development of inflammation-induced swelling in the arthritic paws, at intervals of 3 to 7 days by immersion of the paw to the level of the lateral malleolus in a mercury plethysmograph.
# Drugs were administered once a day (starting on the day of adjuvant injection) by […] using Tween 80 (polyoxyethylene sorbitan mono-oleate) at a dose of 0.25 ml/100 g body weight as the vehicle. Arthritic control rats received daily doses of the vehicle only. On day 23-25, the rats were sacrificed, plasma collected and plasma fibrinogen levels determined (ammonium sulfate turbidimetric method) as described by Exner et al., Amer. J. Clin Path, 71:521-527 (1979). Anti-inflammatory activity of the test drugs were determined by comparing the extent of paw swelling (paw volume on a particular day, i.e. day four to day twenty-five, minus the paw volume on day 0) in drug-treated arthritic rats with the extent of paw swelling in the vehicle-treated arthritic rats. Drug induced decreases in the level of plasma fibrinogen, an acute phase protein that is elevated in the plasma of rats with adjuvant-induced arthritis, were also used to quantitate the anti-inflammatory activity.
# [2] = tested on: impregnated sponge granuloma in the rat; experiment: Impregnated sponge granuloma test in the rat; assay type: in vivo, AHH/R female rats (PVG derived)
# Method: AHH/R female rats (PVG derived) with an initial weight range of 120-140 g. were used.
# Sponge preparation. Pellets (6.5 mm diameter) were punched from cellulose sponge cloth ("Wettex") and 0.1 ml. of a suspension containing 0.5 mg.ml^-1 of heat killed M. tuberculosis (human strains C, DT and PN) in sterile saline was applied to each pellet. The pellets were dried, weighed and autoclaved.
# Rats were randomly divided into groups of five and daily dosing with test compounds was commenced. After the fifth dose the rats were anaesthetised with Sagatal (45 mg.kg^-1 i.p.) the backs were shaved and two pellets were implanted subcutaneously (one each side) into each rat through a small dorsal midline incision. The incision was closed and the rats allowed to recover from the anaesthetic.
# Seven days after implantation the rats were killed and the pellets were removed, dissected free of extraneous tissue and weighed. Each pellet was then placed in a 4 ml aliquot of distilled water, chopped with fine scissors and sonicated. After centrifugation the Na^+ and K^+ content of the supernatant was determined by flame photometry. In addition the adrenal and thumus glands from each rat were dissected out and weighed and the lower hind limbs were removed for measurement of tibial bone breaking strain. Body weights were also recorded throughout the test period.
# The mean ± SE for each of the parameters was calculated and differences from the control values were determined by Student's t test (2-tailed). Percentage reductions of granuloma weight, Na^+ and K^+ content and percentage changes of adrenal and thymus, weight and tibial breaking strain were determined.
# [3] = tested on: MBSA delayed hypersensitivity in mice; experiment: Delayed hypersensitivity to methylated bovine serum albumin (MBSA); assay type: in vivo, Male and female MFI mice substrain E33; conditions: 10 mg.kg^-1 oral
# Method: Male and female MFI mice substrain E33. Initial weight approximately 25 gm.
# Dosing with vehicle and retinoid commenced on day 0 and finished on day 9.
# Each group consisted of 4 male and 6 female mice (separately caged). Drugs were dosed orally at a dose volume of 10 ml.kg^-1 (10 doses).
# [4] = tested on: adjuvant arthritis in the rat; experiment: Developing adjuvant arthritis in the rat; assay type: in vivo, AHH/R Female rats (PVG derived); conditions: 15 mg.kg^-1 p.o.
# Method: AHH/R Female rats (PVG derived with an initial weight range of 110 to 140 g. were used.
# Adjuvant for injection. An homogenized suspension of heat killed M tuberculosis (Human strains C, DT and PN), 5 mg.Ml^-1 in liquid paraffin was prepared.
# Rats were randomly split into groups of five and adjuvant arthritis was induced by the sub-plantar injection of 0.1 ml of adjuvant suspension into the right hind paw of each rat. Test compounds were administered by intubation each morning commencing the day of adjuvant injection. Two groups of control rats were dosed with the vehicle as was a group of three normal rats included for comparative purposes. Dosing was carried out daily until the end of the test on day 15 except for the first weekend (days 5 & 6). Treatment groups are shown in Table III and include etretinate as standard retinoid.
# Measurements of right hind paw volume were made initially and on days 2 and 4 after and adjufant injection (primary phase). Right and left hind paw volume were then measured, on day 8 and every two or three days until the end of the experiment on day 15 (secondary phase). At this time the mobility of each ankle joint and the incidence and severity of secondary lesions on nose, ears, forepaws, left hind paw and tail were also assessed in terms of degrees of flexion possible and by using an arbitrary scoring system, respectively.
# The time course curves for the injected paws were integrated from days 0 to 4 to reflect primary swelling and from days 8 to 15 (secondary swelling). The secondary swelling in the non-injected paw was integrated similarly from days 8 to 15. Calculations were carried out using a specific computer program which computed mean ± se for each integrated area. The significance of differences from controls was determined by Student's t test (2 tailed) and percentage reductions from control areas were calculated. Percentage improvements in joint mobility and percentage reductions in lesion score were also determined. In the latter case the Wilcoxon rank sum test (2 tailed) was used to express the difference from the control score using raw data. Mean body weight change in each group was recorded.
# [5] = tested on: established adjuvant arthritis in rats; experiment: Effect on the course of established adjuvant arthritis; assay type: in vivo, Male Lewis rats from Charles River; conditions: 1 mg/kg, 7 days
# Method: Male Lewis rats from Charles River were used for these experiments.
# Heat-killed, dessicated Mycobacteriam butyricum.
# Adjuvant arthritis was induced by the injection of 0.1 ml of adjuvant [a suspension of heat-killed, dessicated Mycobacterium butyricum, 0.5% CW/V) in heavy mineral oil containing 0.2% digitonin] into the base of the tail. The arthritis was allowed to develop for 21 days and then the volume of both hind paws were measured using a mercury plethysmograph. The rats were divided into groups of 8 with equal mean paw volumes and then the rats were treated with Compound A, indomethacin (as a control drug), or vehicle for 7 days at the end of the treatment period, the volumes of both hind paws were again measured to assess antiinflammatory effects. Body weight changes were also followed and, at the end of the experiment, plasma was collected for determination of plasma fibrinogen (Exner et. al., Amer. J. Clin. Path, 71: 521-527).
# ^b Drugs were administered once a day for 7 days by intubation
# ^c Change in paw volume/body weight equals paw volume body weight on […]
# [6] = oral 75 μMol/Kg, read-out: % Reduction in Paw Volume, Left
# [7] = oral 75 μMol/Kg, read-out: % Reduction in Paw Volume, Right
structure (smiles),measurement,setting,value
CCCCCCCCCOc1ccc(OC)cc1/C=C/C(C)=C/C=C/C(C)=C/C(=O)O,change in vivo at 75 µmol/kg,[1]; [6],-24%
same,change in vivo at 75 µmol/kg,[1]; [7],-27%
same,Plasma fibrinogen % change (reduction),[1]; oral 75 μMol/Kg,-21%
same,Body Weight Gain,[1]; oral 75 μMol/Kg,+27 g
CCCCCCCCNc1ccccc1/C=C/C(C)=C/C=C/C(C)=C/C(=O)OCC,change in vivo at 75 µmol/kg,[1]; [6],-53%
same,change in vivo at 75 µmol/kg,[1]; [7],-53%
same,Body Weight Gain,[1]; oral 75 μMol/Kg,+24 g
CCCCCCCCCOc1cccc(Cl)c1/C=C/C(C)=C/C=C/C(C)=C/C(=O)O,change in vivo at 75 µmol/kg,[1]; [6],-32%
same,change in vivo at 75 µmol/kg,[1]; [7],-29%
same,Body Weight Gain,[1]; oral 75 μMol/Kg,+35 g
CC(/C=C/c1ccccc1OCCCCCCCCO)=C\C=C\C(C)=C\C(=O)O,change in vivo at 96 µmol/kg,"[1]; oral 96 μMol/Kg, read-out: % Reduction in Paw Volume, Left",-49%
same,change in vivo at 96 µmol/kg,"[1]; oral 96 μMol/Kg, read-out: % Reduction in Paw Volume, Right",-37%
same,Plasma fibrinogen % change (reduction),[1]; oral 96 μMol/Kg,-35%
same,Body Weight Gain,[1]; oral 96 μMol/Kg,+27 g
CCCCCCCCCOc1cccc(F)c1/C=C/C(C)=C/C=C/C(C)=C/C(=O)O,change in vivo at 75 µmol/kg,[1]; [6],-68%
same,change in vivo at 75 µmol/kg,[1]; [7],-56%
same,Plasma fibrinogen % change (reduction),[1]; oral 75 μMol/Kg,-51%
same,Body Weight Gain,[1]; oral 75 μMol/Kg,+46 g
C[C@@H]1C[C@H]2[C@@H]3CCC4=CC(=O)C=C[C@]4(C)[C@@]3(F)[C@@H](O)C[C@]2(C)[C@@]1(O)C(=O)CO [Dexamethasone],% reduction of granuloma K+,[2]; 0.5 mg.kg^-1 sc,75.2%
same,% reduction of granuloma Na+,[2]; 0.5 mg.kg^-1 sc,51.2%
same,% reduction of granuloma Wet weight,[2]; 0.5 mg.kg^-1 sc,65.5%
"CCOC(=O)/C=C(C)/C=C/C=C(C)/C=C/c1c(C)cc(OC)c(C)c1C [Etretinate, reference compound]",% change in adrenal weight,[2]; 15 mg.kg^-1 p.o.,+22.9%
same,% change in thymus weight,[2]; 15 mg.kg^-1 p.o.,+15.2%
same,% change in tibial breaking strains,[2]; 15 mg.kg^-1 p.o.,-4.6%
same,% reduction of granuloma K+,[2]; 15 mg.kg^-1 p.o.,-3.9%
same,% reduction of granuloma Na+,[2]; 15 mg.kg^-1 p.o.,5.9%
same,% reduction of granuloma Wet weight,[2]; 15 mg.kg^-1 p.o.,2.7%
same,Body Weight change,[2]; 15 mg.kg^-1 p.o.,+13.3 ± 2.6 g
same,rats that died under anaesthesia,"[2]; 15 mg.kg^-1 p.o., 2 control rats also died",1 rat
same,% increase paw volume,[3]; 10 doses,59 ± 9%
same,% reduction (cf. arachis oil control),[3]; 10 doses,46%
same,Mean body weight change,[3]; female (F),-2.0 g
same,Mean body weight change,[3]; male (M),-0.8 g
same,Body Weight Change Days 0-15,[4],+1.0 g
same,Body Weight Change Days 8-15,[4],-5.0 g
same,Joint Mobility (% INC),[4]; day 15,50%
same,Lesion Score (% RDN),[4]; day 15,56%
same,"% reduction of paw swelling, Primary (right)",[4]; days 0-4,9%
same,"% reduction of paw swelling, Secondary (left)",[4]; days 8-15,67%
same,"% reduction of paw swelling, Secondary (right)",[4]; days 8-15,30%
"COc1ccc2c(c1)c(CC(=O)O)c(C)n2C(=O)c1ccc(Cl)cc1 [Indomethacin, reference compound]",Plasma fibrinogen % change (reduction),[1]; oral 3 μMol/Kg,-30%
same,Plasma Fibrinogen,[5],978 ± 100 mg/dL
same,Change in Body Weight,[5]; day 28 minus day 22,25.6 ± 3.1 g
same,Change in Paw Volume,"[5]; day 28 minus day 22, both hind paws",-1.22 ± 0.15 mL
CCCCCCCCCOc1ccccc1/C=C/C(C)=C/C=C/C(C)=C/C(=O)O [drawing 5],change in vivo at 76 µmol/kg,"[1]; oral 76 μMol/Kg, read-out: % Reduction in Paw Volume, Left",-58%
same,change in vivo at 76 µmol/kg,"[1]; oral 76 μMol/Kg, read-out: % Reduction in Paw Volume, Right",-43%
same,Plasma fibrinogen % change (reduction),[1]; oral 76 μMol/Kg,-55%
same,Body Weight Gain,[1]; oral 76 μMol/Kg,+27 g
CC1=C(/C=C/C(C)=C/C=C/C(C)=C\C(=O)O)C(C)(C)CCC1 [reference compound],change in vivo at 60 µmol/kg,"[1]; oral 60 μMol/Kg, read-out: % Reduction in Paw Volume, Left",-49%
same,change in vivo at 60 µmol/kg,"[1]; oral 60 μMol/Kg, read-out: % Reduction in Paw Volume, Right",-33%
same,Plasma fibrinogen % change (reduction),[1]; oral 60 μMol/Kg,-18%
same,Body Weight Gain,[1]; oral 60 μMol/Kg,-7 g
